Data taken from PMC10579241, “Impact of trifluoromethyl and sulfonyl groups on the biological activity of novel aryl-urea derivatives: synthesis, in-vitro, in-silico and SAR studies” (Scientific Reports, 2023).
Converted amounts (≈) assume the structure as drawn. Like-named read-outs stand apart in the source and are kept apart here. Marks after values point to notes of the source that are not given here.

Tests used:
Bacillus mycoides [1] = assay: microbe, parasite or virus in culture; format: cell-based; settings: for zone of inhibition at 10000 µg/mL: Bacillus mycoides, read-out: Inhibition zones diameter
Escherichia coli [2] = assay: Agar well diffusion, E. coli; format: cell-based; settings: Escherichia coli, read-out: Inhibition zones diameter
Candida albicans [3] = assay: Agar well diffusion, C. albicans; format: cell-based; settings: for zone of inhibition at 10000 µg/mL: Candida albicans, read-out: Inhibition zones diameter
[4] = tested on: human lung carcinoma (A549); assay: cells; format: cell-based; settings: for mortality at 100 µg/mL: A549, 48 h, 100 μg/mL
colon cancer (HCT116) = assay: cells; format: cell-based; settings: Homo sapiens; for mortality at 100 µg/mL: HCT-116, 48 h, 100 μg/mL
prostate cancer (PC3) = assay: cells; format: cell-based; settings: Homo sapiens, 48 h; for mortality at 100 µg/mL: 100 μg/mL
skin cancer (A431) = assay: cells; format: cell-based; settings: Homo sapiens, A-431, 100 μg/mL, 48 h
[5] = tested on: hepatocellular carcinoma cell line (HePG2); assay: cells; format: cell-based; settings: Homo sapiens, 48 h
[6] = tested on: osteosarcoma cell line (HOS); assay: cells; format: cell-based; settings: Homo sapiens, 48 h; for mortality at 100 µg/mL: 100 μg/mL
[7] = tested on: pancreatic cancer cell line (PACA2); assay: cells; format: cell-based; settings: Homo sapiens, PaCa-2, 48 h; for mortality at 100 µg/mL: 100 μg/mL; for IC50: MTT
in vitro = format: cell-based; settings: human, BJ1 normal skin fibroblast cells, 100 μg/mL
Bacillus mycoides [8] = assay: microbe, parasite or virus in culture; format: cell-based
Escherichia coli [9] = assay: MIC by serial dilution (agar wells), E. coli; format: cell-based
Candida albicans [10] = assay: MIC by serial dilution (agar wells), C. albicans; format: cell-based
[11] = tested on: normal skin fibroblast cell line (BJ1); assay: cells; format: cell-based; settings: Homo sapiens, Skin fibroblast, MTT, 48 h
PALB2 = assay: qRT-PCR, PALB2 in PACA2 cells; format: cell-based, human; settings: versus negative untreated sample
CDKN2A = assay: qRT-PCR, CDKN2A in PACA2 cells; format: cell-based, human; settings: versus negative untreated sample
PACA2 [12] = assay: DNA damage, comet assay, PACA2; format: cell-based, human
PACA2 [13] = assay: DNA fragmentation assay, PACA2; format: cell-based, human
[14] = read-out: Minimum inhibition concentration (MIC)
[15] = 0.00488 mg/mL, 150 µL in DMSO, 15 mm agar well
[16] = 0.00975 mg/mL, 150 µL in DMSO, 15 mm agar well
[17] = 0.0195 mg/mL, 150 µL in DMSO, 15 mm agar well
[18] = 0.0391 mg/mL, 150 µL in DMSO, 15 mm agar well
[19] = 0.0781 mg/mL, 150 µL in DMSO, 15 mm agar well
[20] = 0.1563 mg/mL, 150 µL in DMSO, 15 mm agar well
[21] = 0.3125 mg/mL, 150 µL in DMSO, 15 mm agar well
[22] = 0.625 mg/mL, 150 µL in DMSO, 15 mm agar well
[23] = 1.25 mg/mL, 150 µL in DMSO, 15 mm agar well
[24] = 2.50 mg/mL, 150 µL in DMSO, 15 mm agar well
[25] = 5.00 mg/mL, 150 µL in DMSO, 15 mm agar well
[26] = 10.0 mg/mL, 150 µL in DMSO, 15 mm agar well

Cc1ccc(NC(=O)Nc2ccc(C(F)(F)F)cc2)cc1 [Compound 13, 1-(p-Tolyl)-3-[4-(trifluoromethyl)phenyl]urea]
zone of inhibition at 10000 µg/mL (Bacillus mycoides [1]): 16 ± 0.41 mm | zone of inhibition at 10000 µg/mL (Escherichia coli [2]): 18 ± 1.84 mm | zone of inhibition at 10000 µg/mL (Candida albicans [3]): 18 ± 0.66 mm | mortality at 100 µg/mL [4]: 3.5 ± 0.55% | mortality at 100 µg/mL (colon cancer (HCT116)): 11.5 ± 1.19% | mortality at 100 µg/mL (prostate cancer (PC3)): 47.2 ± 0.63% | mortality at 100 µg/mL (skin cancer (A431)): 1.3 ± 0.78% | mortality at 100 µg/mL ([5]; 100 μg/mL): 100% | IC50 ([5]; MTT): 121.7 ± 0.85 µM | mortality at 100 µg/mL [6]: ~74.3% | mortality at 100 µg/mL [7]: 35.8 ± 0.91% | mortality at 48 h, 100 µg/mL (in vitro): 84.2 ± 1.61%

Cc1ccc(S(=O)(=O)NC(=O)Nc2ccccc2C(F)(F)F)cc1 [Compound 11, 4-Methyl-N-[(2-{trifluoromethyl}phenyl)carbamoyl]benzenesulfonamide]
Inhibition zones diameter (Bacillus mycoides [1]; B. mycoides, 200 μL of 10 mg/mL in DMSO in 15 mm holes, overnight 37 °C): 31 ± 0.52 mm | zone of inhibition at 10000 µg/mL (Bacillus mycoides [1]): 31 mm | zone of inhibition at 10000 µg/mL (Escherichia coli [2]): 27 ± 0.58 mm | Inhibition zones diameter (Candida albicans [3]; C. albicans, 200 μL of 10 mg/mL in DMSO in 15 mm holes, overnight 37 °C): 32 ± 0.17 mm | zone of inhibition at 10000 µg/mL (Candida albicans [3]): 32 mm | zone of inhibition at 4.88 µg/mL (Bacillus mycoides [8]; read-out: Inhibition zone): 0 mm | zone of inhibition at 9.75 µg/mL (Bacillus mycoides [8]; read-out: Inhibition zone): 0 mm | zone of inhibition at 19.5 µg/mL (Bacillus mycoides [8]; read-out: Inhibition zone): 0 mm | zone of inhibition at 39.1 µg/mL (Bacillus mycoides [8]; read-out: Inhibition zone): 15 mm | zone of inhibition at 78.1 µg/mL (Bacillus mycoides [8]; read-out: Inhibition zone): 16 mm | zone of inhibition at 156.3 µg/mL (Bacillus mycoides [8]; read-out: Inhibition zone): 16 mm | zone of inhibition at 312.5 µg/mL (Bacillus mycoides [8]; read-out: Inhibition zone): 17 mm | zone of inhibition at 625 µg/mL (Bacillus mycoides [8]; read-out: Inhibition zone): 17 mm | zone of inhibition at 1250 µg/mL (Bacillus mycoides [8]; read-out: Inhibition zone): 18 mm | zone of inhibition at 2500 µg/mL (Bacillus mycoides [8]; read-out: Inhibition zone): 22 mm | zone of inhibition at 5000 µg/mL (Bacillus mycoides [8]; read-out: Inhibition zone): 24 mm | zone of inhibition at 10000 µg/mL (Bacillus mycoides [8]; read-out: Inhibition zone): 27 mm | MIC (Bacillus mycoides [8]; [14]): 39.1 µg/mL (≈ 109 µM) | zone of inhibition at 4.88 µg/mL (Escherichia coli [9]; [15]): 0 mm | zone of inhibition at 9.75 µg/mL (Escherichia coli [9]; [16]): 0 mm | zone of inhibition at 19.5 µg/mL (Escherichia coli [9]; [17]): 0 mm | zone of inhibition at 39.1 µg/mL (Escherichia coli [9]; [18]): 0 mm | zone of inhibition at 78.1 µg/mL (Escherichia coli [9]; [19]): 0 mm | zone of inhibition at 156.3 µg/mL (Escherichia coli [9]; [20]): 16 mm | zone of inhibition at 312.5 µg/mL (Escherichia coli [9]; [21]): 18 mm | zone of inhibition at 625 µg/mL (Escherichia coli [9]; [22]): 20 mm | zone of inhibition at 1250 µg/mL (Escherichia coli [9]; [23]): 22 mm | zone of inhibition at 2500 µg/mL (Escherichia coli [9]; [24]): 24 mm | zone of inhibition at 5000 µg/mL (Escherichia coli [9]; [25]): 28 mm | zone of inhibition at 10000 µg/mL (Escherichia coli [9]; [26]): 30 mm | MIC (Escherichia coli [9]; [14]): 156 µg/mL (≈ 436 µM) | zone of inhibition at 4.88 µg/mL (Candida albicans [10]; [15]): 0 mm | zone of inhibition at 9.75 µg/mL (Candida albicans [10]; [16]): 0 mm | zone of inhibition at 19.5 µg/mL (Candida albicans [10]; [17]): 0 mm | zone of inhibition at 39.1 µg/mL (Candida albicans [10]; [18]): 0 mm | zone of inhibition at 78.1 µg/mL (Candida albicans [10]; [19]): 16 mm | zone of inhibition at 156.3 µg/mL (Candida albicans [10]; [20]): 17 mm | zone of inhibition at 312.5 µg/mL (Candida albicans [10]; [21]): 20 mm | zone of inhibition at 625 µg/mL (Candida albicans [10]; [22]): 22 mm | zone of inhibition at 1250 µg/mL (Candida albicans [10]; [23]): 24 mm | zone of inhibition at 2500 µg/mL (Candida albicans [10]; [24]): 25 mm | zone of inhibition at 5000 µg/mL (Candida albicans [10]; [25]): 26 mm | zone of inhibition at 10000 µg/mL (Candida albicans [10]; [26]): 28 mm | MIC (Candida albicans [10]; [14]): 78.1 µg/mL (≈ 218 µM) | IC50 ([4]; MTT, 48 h): 149.3 ± 0.23 µM | mortality at 100 µg/mL (colon cancer (HCT116)): > 75% | IC50 (colon cancer (HCT116); HCT-116, MTT, 48 h): 161.6 ± 0.24 µM | IC50 (prostate cancer (PC3); MTT): 114.7 ± 0.21 µM | mortality at 100 µg/mL (skin cancer (A431)): 10.5 ± 1.13% | mortality at 100 µg/mL [6]: 44.2 ± 1.11% | IC50 [7]: 80.7 µM | mortality at 48 h, 100 µg/mL (in vitro): 19.2 ± 0.57%

Cc1ccc(NC(=O)Nc2cc(C(F)(F)F)cc(C(F)(F)F)c2)cc1 [Compound 15, 1-[3,5-Bis(trifluoromethyl)phenyl]-3-(p-tolyl)urea]
zone of inhibition at 10000 µg/mL (Bacillus mycoides [1]): 23 ± 0.35 mm | zone of inhibition at 10000 µg/mL (Escherichia coli [2]): 24 ± 0.68 mm | zone of inhibition at 10000 µg/mL (Candida albicans [3]): 24 ± 1.22 mm | mortality at 100 µg/mL [4]: > 50% | mortality at 100 µg/mL (colon cancer (HCT116)): 49.6 ± 1.23% | mortality at 100 µg/mL (prostate cancer (PC3)): > 75% | IC50 ([6]; MTT): 37.3 ± 0.37 µM | mortality at 100 µg/mL [7]: > 75% | IC50 [7]: 82.5 ± 0.21 µM | IC50 [11]: 94.4 ± 0.71 µM | PALB2 gene expression level (PALB2): significantly reduced | CDKN2A gene expression level (CDKN2A): significantly reduced | DNA damaged cells % (mean ± SEM) (PACA2 [12]): 21.00 ± 1.29^a % | Class 0 (no tail), number of cells (PACA2 [12]; of 400 cells analyzed): 316 | Class 1 (tail length < diameter of nucleus), number of cells (PACA2 [12]; of 400 cells analyzed): 31 | Class 2 (tail length between 1 and 2 × the diameter of nucleus), number of cells (PACA2 [12]; of 400 cells analyzed): 25 | Class 3 (tail length > 2 × the diameter of nucleus), number of cells (PACA2 [12]; of 400 cells analyzed): 28 | No. of cells, Comets (PACA2 [12]; of 400 cells analyzed): 84 | Change (DNA fragmentation versus untreated cells) (PACA2 [13]): 20.20 | DNA fragmentation % M ± SEM (PACA2 [13]; IC50 concentration, 24 h): 32.3 ± 0.74^ab % | Inhibition (PACA2 [13]; doxorubicin = 0.0): 12.22
